Results from US12269793B2, “Affinity illudofulvene conjugates” (AF Chemicals, LLC, priority 2019, dated 2025).
Read-outs that look alike come from different tables or passages of the source. *1 amine or outer side, *2 acyl side, *3 side chain or, on linkers, in order; H or OH if unused. Where a SMILES comes first, the peptide text is derived from it. [ ]: non-standard residue; d: D form. The star is where a group is joined. X2 = CC1=C(CCCN*)C2=C(C)C3(CC3)[C@@](C)(O)C(=O)C2=C1; X4 = CC1=C(C*)C2=C(C)C3(CC3)[C@@](C)(O)C(=O)C2=C1; Morpholide = C1CN(*)CCO1; CO = O=C([*:1])[*:2]

Legend:
[1] = system: 8392B Nontarget Cell Line (hematopoietic); assay: cells; conditions: 48 h, read-out: Mean IC50 value
[2] = system: MV522 Target Cell Line (lung-derived adenocarcinoma); assay: cells; conditions: MV522, 48 h, read-out: Mean IC50 value
[3] = system: MV522 Target Cell Line (lung-derived adenocarcinoma); assay: cells; conditions: MV522, 2 h, read-out: Mean IC50 value
[4] = in vitro; conditions: human
From the text: MCF7 over express estrogen alpha-receptors.
MCF7 cells over express estrogen alpha-receptors.

[5] = system: 8392B Nontarget Cell Line (hematopoietic); assay: cells; conditions: 2 h
[6] = system: 8392B Nontarget Cell Line (hematopoietic); conditions: read-out: Mean IC50 value, 2 hr exposure, ± SD, N = 3 unless otherwise indicated
[7] = system: 8392B Nontarget Cell Line (hematopoietic); conditions: read-out: Mean IC50 value, 48 hr exposure, ± SD, N = 3 unless otherwise indicated
[8] = system: NCI 60 cell line panel; assay: NCI DTP 60 cell line screen assay; conditions: for Activity Value: NCI 60 cell line screen, negative = lyse tumor cells, zero = no growth, positive = slower growth
From the text: An ADC is engulfed by a tumor cell, transported to the endosomes (pH<6.0) and then into the lysozomes (pH<4). […] 4). Cancer cells can become resistant to various toxins and drugs through the development of what is termed multi-drug resistance. This process is known to occur through several different mechanisms.

[9] = system: MV522 Target Cell Line (lung-derived adenocarcinoma); conditions: read-out: Mean IC50 value; MV522 Target Cell Line, 2 hr exposure, ± SD, N = 3 unless otherwise indicated
[10] = read-out: Mean IC50 value, 8392B Nontarget Cell Line, 2 hr exposure, ± SD, N = 3 unless otherwise indicated

Row | SMILES | IC50 [1] [µM] | IC50 [2] [µM] | IC50 [3] [µM] | IC50 [5, 10] [µM] | also measured
1 | CC1=CC2=C(C)C3(CC3)[C@@](C)(O)C(=O)C2=C1 [Analog 001] | 0.83 ± 0.1 | 0.35 ± 0.02 | 2.2 ± 0.1 |  | 
2 | CC1=C(CCC(=O)Oc2ccc3c(c2)CCC2C3CC[C@]3(C)C(O)CCC23)C2=C(C)C3(CC3)[C@@](C)(O)C(=O)C2=C1 (stereo partly drawn) [Analog 108] |  | 0.52 ± 0.05 | 12.3 ± 2.3 |  | IC50 [4]: > 55 µM; IC50 ([5]; read-out: Mean IC50 value): > 55 µM
3 | CC1=C(CCC(C)O)C2=C(C)C3(CC3)[C@@](C)(O)C(=O)C2=C1 (stereo partly drawn) [Analog 128] | 0.8 ± 0.07 | 0.37 ± 0.05 | 0.84 ± 0.23 | > 35 | 
4 | CCCCCCCC/C=C/CCCCCCCC(=O)OCC1=C(C)C=C2C(=O)[C@](C)(O)C3(CC3)C(C)=C21 [Analog 226] |  |  |  |  | IC50 [6]: > 59 µM; IC50 [7]: > 59 µM
5 | CCCCCCCC/C=C/CCCCCCCC(=O)OCCCC1=C(C)C=C2C(=O)[C@](C)(O)C3(CC3)C(C)=C21 [Analog 227] |  |  |  |  | IC50 [6]: > 57 µM
6 | CC1=C([N+](=O)[O-])C2=C(C)C3(CC3)[C@@](C)(O)C(=O)C2=C1 [Analog 012] | 18.8 ± 2.8 | 0.32 ± 0.09 | 5.15 ± 1.35 | 42.2 ± 5 | 
7 | CC(=O)OCOCC1=C(C)C=C2C(=O)[C@](C)(O)C3(CC3)C(C)=C21 [Analog 008] | 15.1 ± 2.2 | 0.63 ± 0.08 | 0.87 ± 0.09 |  | 
8 | CC1=C(CSc2nccn2C)C2=C(C)C3(CC3)[C@@](C)(O)C(=O)C2=C1 [Analog 096] | > 3 | 6.2 ± 0.6 |  | > 88 | 
9 | COc1cc2cc(c1Cl)N(C)C(=O)C[C@H](OC(=O)[C@H](C)N(C)C(=O)CCS)[C@]1(C)O[C@H]1[C@H](C)[C@@H]1C[C@@](O)(NC(=O)O1)[C@H](OC)/C=C/C=C(\C)C2 [DM1] |  |  |  |  | Activity Value [8]: +8
10 | CC1=C(CSC[C@@H](C)C(=O)N2CCC[C@H]2C(=O)O)C2=C(C)C3(CC3)[C@@](C)(O)C(=O)C2=C1 [Analog 098] | 11.7 ± 1.8 | 4.6 ± 0.25 | 18.8 ± 2.5 | > 65 | 
11 | CC1=C(CSc2nc3ccccc3s2)C2=C(C)C3(CC3)[C@@](C)(O)C(=O)C2=C1 [Analog 147] |  |  |  |  | IC50 [6]: > 76 µM
12 | COc1cc2cc(c1Cl)N(C)C(=O)C[C@H](OC(=O)[C@H](C)N(C)C(C)=O)[C@]1(C)O[C@H]1[C@H](C)[C@@H]1C[C@@](O)(NC(=O)O1)[C@H](OC)/C=C/C=C(\C)C2 [Maytansine] |  |  |  |  | GI50 ([8]; 60 cell, read-out: Mean GI50 inhibition): 0.019 µM; Mean LD50 cytotoxic ([8]; NCI DTP 60 cell line, mean): 49,200 nM
13 | CC1=C(CCCNC(=O)[C@H](CC(C)C)NC(=O)[C@H](CCC(N)=O)NC(=O)[C@H](CC(C)C)NC(=O)[C@H](CCCCN)NC(=O)[C@H](CO)NC(=O)[C@H](CO)NC(=O)[C@H](Cc2c[nH]cn2)NC(=O)N2CCOCC2)C2=C(C)C3(CC3)[C@@](C)(O)C(=O)C2=C1 [Analog 221] ({Morpholide-CO}-HSSKLQL-X2) |  |  |  |  | IC50 [6]: > 21 µM; IC50 [9]: > 21 µM; IC50 [7]: > 21 µM
14 | CC1=C2C(=C[C@@](C)(C=O)[C@@H]2O)C(=O)[C@](C)(O)C12CC2 [Analog 383] |  |  |  |  | Activity Value [8]: −1; MDR Activity [8]: Yes
15 | CC(=O)N[C@@H](CSCC1=C(C)C=C2C(=O)[C@](C)(O)C3(CC3)C(C)=C21)C(=O)N[C@@H](CC(C)C)C(=O)NCC(=O)N[C@@H](C=O)Cc1ccccc1 [Analog 084] (Ac-C(X4)LG[dF]-aldehyde) | > 42 | 28.2 ± 1.4 |  |  | 
16 | CC1=C(CCC=NN=CCCC2=C(C)C=C3C(=O)[C@@](C)(O)C4(CC4)C(C)=C32)C2=C(C)C3(CC3)[C@@](C)(O)C(=O)C2=C1 [Analog 120] | 0.51 ± 0.11 | 0.6 ± 0.1 | 2.8 ± 0.9 | 19.1 ± 4.6 | 
17 | CC(=O)N[C@@H](CSCC1=C(C)C=C2C(=O)[C@](C)(O)C3(CC3)C(C)=C21)C(=O)N[C@@H](Cc1ccccc1)C(=O)NCC(=O)N[C@H](C=O)CC(C)C [Analog 083] (Ac-C(X4)FGL-aldehyde) | > 42 | 37.2 ± 2.9 |  |  | 
18 | CC(=O)OCCCC1=C(C)C=C2C(=O)[C@](C)(O)C3(CC3)C(C)=C21 [Analog 094] | 0.11 ± 0.01 |  | 0.8 ± 0.1 | 9 ± 1.7 | 
19 | CC1=C(CNO)C2=C(C)C3(CC3)[C@@](C)(O)C(=O)C2=C1 [Analog 394] |  |  |  |  | Activity Value [8]: −2; MDR Activity [8]: Yes
20 | CC1=C(CCC2CO2)C2=C(C)C3(CC3)[C@@](C)(O)C(=O)C2=C1 (stereo partly drawn) [Analog 114] | 0.7 ± 0.1 | 0.26 ± 0.07 | 1.5 ± 0.1 | 25.1 ± 1 | 
